pIC50: −log10 of the molar value.
How the values were obtained:
CDK2/CyclinE = target: T1, CDK2/CyclinE (Homo sapiens, UniProt P24941); experiment: CDK2/CycE kinase assay (TR-FRET); format: biochemical; conditions: 2 mM ATP (high ATP); median; read-out: CDK2/CyclinE, 2 mM ATP (high ATP) IC50 - [mol/l] (median)
T1 construct: GST; purchased ProQinase GmbH (Freiburg, Germany); host or cells: insect cells (Sf9)
Excerpt: 2.4 CDK2/CycE Kinase Assay
CDK2/CycE-inhibitory activity of compounds of the present invention was quantified employing the CDK2/CycE TR-FRET assay as described in the following paragraphs.
Recombinant fusion proteins of GST and human CDK2 and of GST and human CycE, expressed in insect cells (Sf9) and purified by Glutathion-Sepharose affinity chromatography, were purchased from ProQinase GmbH (Freiburg, Germany). As substrate for the kinase reaction biotinylated peptide biotin-Ttds-YISPLKSPYKISEG (C-terminus in amid form) was used which can be purchased e.g. form the company JERINI peptide technologies (Berlin, Germany).
For the assay 50 nanoL of a 100 fold concentrated solution of the test compound in DMSO was pipetted into a black low volume 384 well microtiter plate or a black 1536 well microtiter plate (both Greiner Bio-One, Frickenhausen, Germany), 2 microL of a solution of CDK2/CycE in aqueous assay buffer [50 millimol/L Tris/HCl pH 8.0, 10 millimol/L MgCl2, 1.0 millimol/L dithiothreitol, 0.1 millimol/L sodium ortho-vanadate, 0.01% (v/v) Nonidet-P40 (Sigma)] were added and the mixture was incubated for 15 min at 22° C. to allow pre-binding of the test compounds to the enzyme before the start of the kinase reaction. Then the kinase reaction was started by the addition of 3 microL of a solution of adenosine-tri-phosphate (ATP, 3.33 millimol/L=>final conc. in the 5 microL assay volume is 2 millimol/L) and substrate (1.25 micromol/L=>final conc. in the 5 microL assay volume is 0.75 micromol/L) in assay buffer and the resulting mixture was incubated for a reaction time of 25 min at 22° C. The concentration of CDK2/CycE was adjusted depending of the activity of the enzyme lot and was chosen appropriate to have the assay in the linear range, typical concentrations were in the range of 10 ng/mL. The reaction was stopped by the addition of 3 microL of a solution of TR-FRET detection reagents (0.333 micromol/L streptavidine-XL665 [Cisbio Bioassays, Codolet, France] and 1.67 nanomol/L anti-RB(pSer807/pSer811)-antibody from BD Pharmingen [#558389] and 2 nanomol/L LANCE EU-W1024 labeled anti-mouse IgG antibody [Perkin-Elmer, product no. AD0077, as an alternative a Terbium-cryptate-labeled anti-mouse IgG antibody from Cisbio Bioassays can be used]) in an aqueous EDTA-solution (167 millimol/L EDTA, 0.2% (w/v) bovine serum albumin in 100 millimol/L HEPES pH 7.5).
The resulting mixture was incubated 1 h at 22° C. to allow the formation of complex between the phosphorylated biotinylated peptide and the detection reagents. Subsequently the amount of phosphorylated substrate was evaluated by measurement of the resonance energy transfer from the Eu-chelate to the streptavidine-XL. Therefore, the fluorescence emissions at 620 nm and 665 nm after excitation at 350 nm was measured in a TR-FRET reader, e.g. a Pherastar (BMG Labtechnologies, Offenburg, Germany) or a Viewlux (Perkin-Elmer). The ratio of the emissions at 665 nm and at […] was taken as the measure for the amount of phosphorylated substrate. The data were normalised (enzyme reaction without inhibitor=0% inhibition, all other assay components but no enzyme=100% inhibition).

CYCLIN K = target: T2, CYCLIN K (Homo sapiens, UniProt O75909); experiment: CYCLIN K nuclear protein level: immunofluorescence/high content analysis in CAL-120 cells; format: cell-based; conditions: 24 h, nuclear CCNK staining intensity, median, read-out: CYCLIN K degradation IF, DC50- [mol/l] (median)
T2 construct: endogenous in cells; host or cells: CAL-120 human breast cancer cells (DSMZ ACC 459)
T2 sequence (O75909 whole entry): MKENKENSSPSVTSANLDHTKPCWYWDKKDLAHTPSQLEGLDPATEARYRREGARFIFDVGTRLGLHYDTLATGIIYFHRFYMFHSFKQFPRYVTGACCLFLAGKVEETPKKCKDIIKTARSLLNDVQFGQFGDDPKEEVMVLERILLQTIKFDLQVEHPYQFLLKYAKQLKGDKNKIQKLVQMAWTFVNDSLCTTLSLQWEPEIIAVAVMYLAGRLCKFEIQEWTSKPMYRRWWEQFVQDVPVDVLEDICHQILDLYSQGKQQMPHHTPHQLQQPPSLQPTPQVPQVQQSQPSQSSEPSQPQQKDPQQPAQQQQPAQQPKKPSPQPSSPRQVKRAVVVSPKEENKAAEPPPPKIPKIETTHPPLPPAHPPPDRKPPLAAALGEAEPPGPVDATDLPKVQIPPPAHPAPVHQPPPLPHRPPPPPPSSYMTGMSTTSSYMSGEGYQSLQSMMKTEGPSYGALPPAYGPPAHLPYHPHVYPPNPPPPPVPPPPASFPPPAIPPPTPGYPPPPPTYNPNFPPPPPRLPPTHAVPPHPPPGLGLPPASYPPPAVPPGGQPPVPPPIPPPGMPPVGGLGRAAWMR
T2 sequence (Q9NYV4 whole entry partner): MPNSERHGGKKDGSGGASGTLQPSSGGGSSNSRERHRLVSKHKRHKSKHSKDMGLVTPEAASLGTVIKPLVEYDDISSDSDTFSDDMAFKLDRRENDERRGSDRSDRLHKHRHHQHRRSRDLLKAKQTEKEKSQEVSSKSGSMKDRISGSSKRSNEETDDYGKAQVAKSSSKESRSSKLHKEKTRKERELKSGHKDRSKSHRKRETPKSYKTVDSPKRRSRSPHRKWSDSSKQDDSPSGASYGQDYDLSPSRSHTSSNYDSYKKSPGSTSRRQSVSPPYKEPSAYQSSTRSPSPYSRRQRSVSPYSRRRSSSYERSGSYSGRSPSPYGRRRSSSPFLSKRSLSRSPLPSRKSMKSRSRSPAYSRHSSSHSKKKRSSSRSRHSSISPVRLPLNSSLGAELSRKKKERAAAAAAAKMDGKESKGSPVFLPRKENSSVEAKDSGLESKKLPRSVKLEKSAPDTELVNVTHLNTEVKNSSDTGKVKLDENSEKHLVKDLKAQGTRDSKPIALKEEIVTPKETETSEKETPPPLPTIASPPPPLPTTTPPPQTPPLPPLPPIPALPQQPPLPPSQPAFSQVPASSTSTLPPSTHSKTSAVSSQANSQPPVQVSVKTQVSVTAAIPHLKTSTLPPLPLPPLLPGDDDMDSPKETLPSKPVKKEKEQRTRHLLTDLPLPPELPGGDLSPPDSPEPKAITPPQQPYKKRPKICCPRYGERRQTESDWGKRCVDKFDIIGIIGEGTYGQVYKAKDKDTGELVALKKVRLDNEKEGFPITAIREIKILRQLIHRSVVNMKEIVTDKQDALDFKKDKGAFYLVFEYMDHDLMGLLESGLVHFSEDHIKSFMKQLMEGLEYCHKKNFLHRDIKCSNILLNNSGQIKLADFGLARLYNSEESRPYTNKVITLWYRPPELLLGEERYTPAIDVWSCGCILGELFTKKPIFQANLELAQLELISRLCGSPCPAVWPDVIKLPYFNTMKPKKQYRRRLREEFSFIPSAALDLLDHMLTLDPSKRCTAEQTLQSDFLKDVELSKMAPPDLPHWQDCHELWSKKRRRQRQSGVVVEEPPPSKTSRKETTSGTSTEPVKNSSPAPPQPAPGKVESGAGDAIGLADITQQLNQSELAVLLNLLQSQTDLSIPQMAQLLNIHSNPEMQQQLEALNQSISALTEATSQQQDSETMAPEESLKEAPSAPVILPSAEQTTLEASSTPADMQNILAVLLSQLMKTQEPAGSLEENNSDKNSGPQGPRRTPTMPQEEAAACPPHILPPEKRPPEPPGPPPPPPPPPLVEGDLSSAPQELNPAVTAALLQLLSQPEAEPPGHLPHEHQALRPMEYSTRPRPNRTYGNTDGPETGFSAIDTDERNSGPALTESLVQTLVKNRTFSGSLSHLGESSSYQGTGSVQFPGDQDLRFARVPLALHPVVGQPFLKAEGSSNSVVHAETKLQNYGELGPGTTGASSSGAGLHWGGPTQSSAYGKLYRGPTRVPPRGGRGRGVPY
Method: 7. CYCLIN K Nuclear Protein Level: Immunofluorescence/High Content Analysis
In the context of the present invention, the term “DC50 Cyclin K” refers to the DC50 values obtained according to the assay described in this section (7) herein below, i.e. the DC50 values for the degradation of Cyclin K.
CAL-120 human breast cancer cells (DSMZ ACC 459) are seeded in 1536-well microtiter plates (800 cells per well) containing 50 nanoL of compounds in Dose-Response. Control wells received DMSO or Reference Example 1. Plates are then incubated for 24 h at 37° C. in an humidified incubator and fixed with 4% PFA for 10 min. Then immunofluorescence (IF) against CYCLIN K (ThermoFisher Scientific CCNK Antibody # PA5-85020, rabbit, 1:200 dilution) is performed using standard IF protocols. Cells are then stained with Hoechst 33342 (Life Technologies, H-1399, 0.1 microg/mL) and imaged on an automated confocal microscopy system (e.g. Perkin Elmer Opera Phenix). Nuclear and cytoplasmic intensity as well as the nuclear/cytoplasmic intensity ratio is determined by automated image analysis using custom generated scripts (MetaXpress). Data is then transferred to Genedata Screener software, normalized to DMSO and control and DC50 values (degrading concentration to achieve 50% reduction of nuclear CCNK staining intensity relative to controls) are reported.

Row | pIC50 (CDK2/CyclinE) | DC50 (CYCLIN K) | SMILES
1 | < 4.70 | 2.62 nM | CN1CCC(n2nc(NCc3nc4c(C(F)(F)F)cccc4[nH]3)c3ncc(C4CC4)nc32)CC1 [Example 7, 6-cyclopropyl-1-(1-methylpiperidin-4-yl)-N-{[4-(trifluoromethyl)-1H-benzimidazol-2-yl]methyl}-1H-pyrazolo[3,4-b]pyrazin-3-amine]
2 | < 4.70 | 12.5 nM | c1ccc2[nH]c(CNc3nn(C4COC4)c4nc(C5CC5)cnc34)nc2c1 [Example 55, N-[(1H-benzimidazol-2-yl)methyl]-6-cyclopropyl-1-(oxetan-3-yl)-1H-pyrazolo[3,4-b]pyrazin-3-amine]
3 | < 4.70 | 37.4 nM | COCCn1nc(NCc2nc3ccccc3[nH]2)c2ncc(C3CC3)nc21 [Example 65, N-[(1H-benzimidazol-2-yl)methyl]-6-cyclopropyl-1-(2-methoxyethyl)-1H-pyrazolo[3,4-b]pyrazin-3-amine]
4 | < 4.70 | 8.83 nM | O[C@H]1C[C@@H](Cn2nc(NCc3nc4ccccc4[nH]3)c3ncc(C4CC4)nc32)C1 [Example 71, cis-3-[(3-{[(1H-benzimidazol-2-yl)methyl]amino}-6-cyclopropyl-1H-pyrazolo[3,4-b]pyrazin-1-yl)methyl]cyclobutan-1-ol]
5 | < 4.70 | 53.2 nM | OC1(Cn2nc(NCc3nc4ccccc4[nH]3)c3ncc(C4CC4)nc32)CCCC1 [Example 73, 1-[(3-{[(1H-benzimidazol-2-yl)methyl]amino}-6-cyclopropyl-1H-pyrazolo[3,4-b]pyrazin-1-yl)methyl]cyclopentan-1-ol]
6 | < 4.70 | 23.4 nM | OC1(Cn2nc(NCc3nc4ccccc4[nH]3)c3ncc(C4CC4)nc32)CCC1 [Example 72, 1-[(3-{[(1H-benzimidazol-2-yl)methyl]amino}-6-cyclopropyl-1H-pyrazolo[3,4-b]pyrazin-1-yl)methyl]cyclobutan-1-ol]
7 | < 4.70 | 0.704 nM | COc1cccc2[nH]c(CNc3nn(C4CCN(C)CC4)c4nc(C5CC5)cnc34)nc12 [Example 2, 6-cyclopropyl-N-[(4-methoxy-1H-benzimidazol-2-yl)methyl]-1-(1-methylpiperidin-4-yl)-1H-pyrazolo[3,4-b]pyrazin-3-amine]
8 | < 4.70 | 0.263 nM | Cc1ccc2[nH]c(CNc3nn(C4CCN(C)CC4)c4nc(C5CC5)cnc34)nc2c1 [Example 6, 6-cyclopropyl-N-[(5-methyl-1H-benzimidazol-2-yl)methyl]-1-(1-methylpiperidin-4-yl)-1H-pyrazolo[3,4-b]pyrazin-3-amine]
9 | < 4.70 | 4.46 nM | O[C@H]1CC[C@@H](n2nc(NCc3nc4ccccc4[nH]3)c3ncc(C4CC4)nc32)CC1 [Example 51, cis-4-(3-{[(1H-benzimidazol-2-yl)methyl]amino}-6-cyclopropyl-1H-pyrazolo[3,4-b]pyrazin-1-yl)cyclohexan-1-ol]
10 | < 4.70 | 20.7 nM | CN(C)CCn1nc(NCc2nc3ccccc3[nH]2)c2ncc(C3CC3)nc21 [Example 68, N-[(1H-benzimidazol-2-yl)methyl]-6-cyclopropyl-1-[2-(dimethylamino)ethyl]-1H-pyrazolo[3,4-b]pyrazin-3-amine]
11 | < 4.70 | 15.6 nM | COC(C)(C)CCn1nc(NCc2nc3ccccc3[nH]2)c2ncc(C3CC3)nc21 [Example 67, N-[(1H-benzimidazol-2-yl)methyl]-6-cyclopropyl-1-(3-methoxy-3-methylbutyl)-1H-pyrazolo[3,4-b]pyrazin-3-amine]
12 | < 4.70 | 1.72 nM | CN1CCCC(n2nc(NCc3nc4ccccc4[nH]3)c3ncc(C4CC4)nc32)CC1 (single isomer, unassigned) [Example 37, (+) or (−)-N-[(1H-benzimidazol-2-yl)methyl]-6-cyclopropyl-1-[(4R*)-1-methylazepan-4-yl]-1H-pyrazolo[3,4-b]pyrazin-3-amine]
13 | < 4.70 | > 677 nM | c1ccc2[nH]c(CNc3nn(C4CCOCC4)c4nc(C5CC5)cnc34)nc2c1 [Example 16, N-[(1H-benzimidazol-2-yl)methyl]-6-cyclopropyl-1-(oxan-4-yl)-1H-pyrazolo[3,4-b]pyrazin-3-amine]
14 | < 4.70 | 0.914 nM | CN1CCC(n2nc(NCc3nc4cc(F)ccc4[nH]3)c3ncc(C4CC4)nc32)CC1 [Example 4, 6-cyclopropyl-N-[(5-fluoro-1H-benzimidazol-2-yl)methyl]-1-(1-methylpiperidin-4-yl)-1H-pyrazolo[3,4-b]pyrazin-3-amine]
15 | < 4.70 | 159 nM | c1ccc2[nH]c(CNc3nn(C4CCOC4)c4nc(C5CC5)cnc34)nc2c1 (racemic) [Example 10, (±)-N-[(1H-benzimidazol-2-yl)methyl]-6-cyclopropyl-1-[oxolan-3-yl]-1H-pyrazolo[3,4-b]pyrazin-3-amine]
16 | < 4.70 | 11.3 nM | CC(C)(O)C1CC(n2nc(NCc3nc4ccccc4[nH]3)c3ncc(C4CC4)nc32)C1 (mixture of isomers) [Example 48, 2-[cis/trans-3-(3-{[(1H-benzimidazol-2-yl)methyl]amino}-6-cyclopropyl-1H-pyrazolo[3,4-b]pyrazin-1-yl)cyclobutyl]propan-2-ol]
17 | < 4.70 | 4.87 nM | OC[C@H]1C[C@H](n2nc(NCc3nc4ccccc4[nH]3)c3ncc(C4CC4)nc32)C1 [Example 46, [trans-3-(3-{[(1H-benzimidazol-2-yl)methyl]amino}-6-cyclopropyl-1H-pyrazolo[3,4-b]pyrazin-1-yl)cyclobutyl]methanol]
18 | < 4.70 |  | CN1CCC(n2nc(NCc3nc4c(Cl)c(F)ccc4[nH]3)c3ncc(C4CC4)nc32)CC1 [Example 31, N-[(4-chloro-5-fluoro-1H-benzimidazol-2-yl)methyl]-6-cyclopropyl-1-(1-methylpiperidin-4-yl)-1H-pyrazolo[3,4-b]pyrazin-3-amine]
19 | < 4.70 |  | COCCCn1nc(NCc2nc3ccccc3[nH]2)c2ncc(C3CC3)nc21 [Example 61, N-[(1H-benzimidazol-2-yl)methyl]-6-cyclopropyl-1-(3-methoxypropyl)-1H-pyrazolo[3,4-b]pyrazin-3-amine]
20 | < 4.70 |  | Cc1c(F)ccc2[nH]c(CNc3nn(C4CCN(C)CC4)c4nc(C5CC5)cnc34)nc12 [Example 26, 6-cyclopropyl-N-[(5-fluoro-4-methyl-1H-benzimidazol-2-yl)methyl]-1-(1-methylpiperidin-4-yl)-1H-pyrazolo[3,4-b]pyrazin-3-amine]
21 | < 4.70 |  | Cc1c(Cl)ccc2[nH]c(CNc3nn(C4CCN(C)CC4)c4nc(C5CC5)cnc34)nc12 [Example 21, N-[(5-chloro-4-methyl-1H-benzimidazol-2-yl)methyl]-6-cyclopropyl-1-(1-methylpiperidin-4-yl)-1H-pyrazolo[3,4-b]pyrazin-3-amine]

— patent US20230192700A1, “PYRAZOLOPYRAZINES ACTING ON CANCERS VIA INHIBITION OF CDK12” (Bayer Aktiengesellschaft, priority 2020, published 2023)
